According to patent US8252563B2, “Reductase, gene thereof and method of using the same” (Sumitomo Chemical Company, Limited, priority 2007, dated 2012):

What was measured:
[1] = system: purified invented protein (active fragment (C)); test: Substrate specificity: reduction activity of the invented protein on carbonyl compounds (NADPH absorbance decrease at 340 nm); type: biochemical, Stenotrophomonas sp. SC-1 strain
[2] = Optimal pH of the reduction activity on ethyl benzoylformate; type: biochemical; conditions: ethyl benzoylformate 10 mM, NADPH 0.5 mM, pH 5.5 to 10, 30° C., 1 minute, 340 nm
[3] = substrate 1 mM, NADPH 0.5 mM, 100 mM phosphate buffer pH 7, 30° C., 5 minutes, relative value, activity on ethyl benzoylformate = 100%

For `O=C(O)CCC(=O)c1ccccc1` [3-Benzoylpropionic acid], the “Relative activity (%)” value [1, 3] was 3.3%.

For `CCOC(=O)C(=O)c1ccccc1` [Eethyl benzoylformate, ethyl benzoylformate], the “Relative activity (%)” value [1, 3] was 100%.

With `CCOC(=O)CC(=O)CCl` [Ethyl 4-chloro-3-oxobutyrate] the “Relative activity (%)” value ([1]; pH 7) was 0.5%.

In the case of `CCOC(=O)C(=O)CCc1ccccc1` [Ethyl 4-phenyl2-oxobutyrate], the “Relative activity (%)” value [1, 3] is reported as 1.5%.

For `CCOC(=O)C(C)=O` [Ethyl pyruvate], the “Relative activity (%)” value [1, 3] was 33.7%.

In the case of `COC(=O)CC(=O)CBr` [Methyl 4-bromo-3-oxobutyrate], the “Relative activity (%)” value [1, 3] is reported as 3.9%.

For `CCC=O` [Propionaldehyde], the “Relative activity (%)” value [1, 3] was 8.6%.

B1: invented protein (active fragment (C)): purified reductase (SEQ ID NO:1) of Stenotrophomonas sp. SC-1, expressed in E. coli HB101 with plasmid pTrcRs (protein, listed as Stenotrophomonas sp.)
chain: MTATRELGRSGLHVAPIAFGGNVFGWSADEKTSFALLDAFVEAGFNLVDTADVYSAWVPGNQGGESETILGRWFKHSGKRDKVVLATKVAKWSEHPGLSADNITAAVEDSLRRLQTDVIDLYQAHEDDESTPLESTLAAFGRLIEQGKVRAIGASNYSAERLSDALKVSADYKLPRYETLQPEYNLYDRAGYEAGLEAVVRDAQLGVISYYSLASGFLSGKYRSAADAGKSSARGQSVVDKYVNPRGLRILGALDDVASTHGVSPSQIAIAWLIARPGITAPIVSATSVEQLNDVLAAAKVALSAQEVQQLDAASAEQA
With B1 the “optimal pH” value [2] was 7.0.
